Test results reported in patent US9902725B2, “Heterocyclic derivatives as RORgamma modulators” (GENFIT, priority 2014, dated 2018).

What follows are molecules tested against T1, RORγt ligand-binding domain (RORγt-LBD) (Homo sapiens, UniProt P51449) (assay: Time-resolved FRET (TR-FRET) RORγt coactivator assay). Settings: GST-RORγ-LBD, biotinylated RIP140 peptide, coactivator displacement.
T1 construct: 20 nM recombinantly expressed RORγ-LBD fused to GST
T1 sequence (P51449 269-508 limits assumed): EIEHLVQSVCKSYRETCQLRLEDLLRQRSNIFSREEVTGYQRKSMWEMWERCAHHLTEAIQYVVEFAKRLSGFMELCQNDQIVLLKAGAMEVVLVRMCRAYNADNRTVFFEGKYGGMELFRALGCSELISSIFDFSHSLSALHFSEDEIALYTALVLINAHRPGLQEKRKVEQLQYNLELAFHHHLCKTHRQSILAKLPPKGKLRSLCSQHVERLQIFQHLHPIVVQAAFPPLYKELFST
Assay type: biochemical
Description: Time-resolved FRET (TR-FRET) RORγt coactivator assay was used to identify RORγ modulator compounds with ligand-dependent coactivator displacement. The assay uses a d2-labeled anti-GST antibody, synthetic N-terminally biotinylated peptide which is derived from nuclear receptor coactivator protein RIP140, and a RORγt ligand-binding domain (RORγt-LBD) that is tagged with glutathione-S-transferase (GST). The influence of compounds on the RORγ-peptide interaction relies on the binding dependent energy transfer from a donor to an acceptor fluorophore attached to the binding partner of interest. […] For reduction of background from compound fluorescence, TR-FRET method makes use of generic fluorophore labels and time resolved detection.
The assays were done in a final volume of 20 μl in a 384 well plate in a CHAPS buffer (2 mM CHAPS; 1 mM DTT, 2 mM EDTA; 0.1% BSA), containing 20 nM recombinantly expressed RORγ-LBD fused to GST, 30 nM N-terminally biotinylated peptide, 1 nM streptavidin-terbium conjugate and 20 nM d2 labeled-anti-GST. Test compounds were diluted using 10 mM stock solution. The range of the final compound concentrations used in this test was from 0.3 nM to 30 μM (logarithmic scale). DMSO content of the samples was kept at 1%. The assay was equilibrated for 2 hours in the dark at room temperature in 384 well plates (Falcon). The signal was detected by an Ultra384 reader (TECAN). The results were visualized by plotting the ratio between the emitted light at 665 nm and 620 nm. A basal level of RORγ-peptide formation is observed in the absence of added compound. Compounds that promote coactivator displacement induce a concentration-dependent decrease in time-resolved fluorescent signal. Data were collected and analyzed using GraphPad Prism software (GraphPad Software V5.02, San Diego Calif. USA). IC50 in μM and Emax in % were reported for each compound.

Row | Structure (SMILES) | IC50
1 | CC(C)CC(NC(=O)Cc1ccc2[nH]cc(CCC(=O)OC(C)(C)C)c2c1)c1cccc2ccccc12 (centres unmarked) [Cpd. 104, tert-butyl 3-[5-({[3-methyl-1-(naphthalen-1-yl)butyl]carbamoyl}methyl)-1H-indol-3-yl]propanoate] | 1000 to 10000 nM
2 | Cc1ccc(C(NC(=O)Cc2ccc3[nH]cc(C(=O)O)c3c2)c2ccccc2)c(Br)c1 (centres unmarked) [compound 207, 5-({[(2-bromo-4-methylphenyl)(phenyl)methyl]carbamoyl}methyl)-1H-indole-3-carboxylic acid] | 1000 to 10000 nM
3 | COC(=O)Cc1c[nH]c2ccc(CC(=O)NC(c3ccccc3)c3ccc(C)cc3Br)cc12 (centres unmarked) [Cpd. 220, methyl 2-[5-({[(2-bromo-4-methylphenyl)(phenyl)methyl]carbamoyl}methyl)-1H-indol-3-yl]acetate] | < 1000 nM
4 | CC(C)(C)OC(=O)CCc1c[nH]c2ccc(CC(=O)NC3(c4ccccc4N4CCCCC4)CCCCC3)cc12 [Cpd. 143, tert-butyl 3-{5-[({1-[2-(piperidin-1-yl)phenyl]cyclohexyl}carbamoyl)methyl]-1H-indol-3-yl}propanoate] | 1000 to 10000 nM
5 | Cc1cc(Br)ccc1C(NC(=O)Cc1ccc2[nH]cc(CCC(=O)O)c2c1)c1ccccc1 (centres unmarked) [compound 44, 3-[5-({[(4-bromo-2-methylphenyl)(phenyl)methyl]carbamoyl}methyl)-1H-indol-3-yl]propanoic acid] | < 1000 nM
6 | Cc1ccc(C(NC(=O)Cc2ccc3[nH]cc(CCC(=O)OC(C)(C)C)c3c2)c2ccc(C)s2)c(C)c1 (centres unmarked) [Cpd. 100, tert-butyl 3-[5-({[(2,4-dimethylphenyl)(5-methylthiophen-2-yl)methyl]carbamoyl}methyl)-1H-indol-3-yl]propanoate] | 1000 to 10000 nM
7 | Cc1ccc(C(NC(=O)Cc2ccc3[nH]cc(CCC(=O)OC(C)(C)C)c3c2)c2nccs2)c(N2CCCCC2)c1 (centres unmarked) [Cpd. 139, tert-butyl 3-{5-[({[4-methyl-2-(piperidin-1-yl)phenyl](1,3-thiazol-2-yl)methyl}carbamoyl)methyl]-1H-indol-3-yl}propanoate] | < 1000 nM
8 | CC(C)CC(NC(=O)Cc1ccc2[nH]cc(CCC(=O)O)c2c1)c1ccc(Br)cc1N1CCCC1 (centres unmarked) [compound 182, 3-{5-[({1-[4-bromo-2-(pyrrolidin-1-yl)phenyl]-3-methylbutyl}carbamoyl)methyl]-1H-indol-3-yl}propanoic acid] | < 1000 nM
9 | O=C(O)CCc1c[nH]c2ccc(CC(=O)NC(c3ccccc3)c3ccc(F)cc3N3CCCC3)cc12 (centres unmarked) [compound 93, 3-{5-[({[4-fluoro-2-(pyrrolidin-1-yl)phenyl](phenyl)methyl}carbamoyl)methyl]-1H-indol-3-yl}propanoic acid] | < 1000 nM
10 | Cc1cc(F)ccc1C(NC(=O)Cc1ccc2[nH]cc(CCC(=O)O)c2c1)c1ccccc1 (centres unmarked) [compound 46, 3-[5-({[(4-fluoro-2-methylphenyl)(phenyl)methyl]carbamoyl}methyl)-1H-indol-3-yl]propanoic acid] | < 1000 nM
11 | O=C(O)Cc1c[nH]c2ccc(CC(=O)NC(c3ccccc3)c3ccc(Br)cc3N3CCCC3)cc12 (centres unmarked) [compound 67, 2-{5-[({[4-bromo-2-(pyrrolidin-1-yl)phenyl](phenyl)methyl}carbamoyl)methyl]-1H-indol-3-yl}acetic acid] | < 1000 nM
12 | Cc1ccc(N2CCCCC2)c(C(NC(=O)Cc2ccc3[nH]cc(CCC(=O)OC(C)(C)C)c3c2)c2ccccc2)c1 (centres unmarked) [Cpd. 113, tert-butyl 3-{5-[({[5-methyl-2-(piperidin-1-yl)phenyl](phenyl)methyl}carbamoyl)methyl]-1H-indol-3-yl}propanoate] | 1000 to 10000 nM
13 | COc1ccc(N2CCCCC2)c(C(NC(=O)Cc2ccc3[nH]cc(CCC(=O)OC(C)(C)C)c3c2)c2ccccc2)c1 (centres unmarked) [Cpd. 135, tert-butyl 3-{5-[({[5-methoxy-2-(piperidin-1-yl)phenyl](phenyl)methyl}carbamoyl)methyl]-1H-indol-3-yl}propanoate] | 1000 to 10000 nM
14 | O=C(O)Cc1c[nH]c2ccc(CC(=O)NC(c3ccccc3)c3ccccc3N3CCCCCC3)cc12 (centres unmarked) [compound 75, 2-{5-[({[2-(azepan-1-yl)phenyl](phenyl)methyl}carbamoyl)methyl]-1H-indol-3-yl}acetic acid] | 1000 to 10000 nM
15 | O=C(O)Cc1c[nH]c2ccc(CC(=O)NC(c3ccccc3)c3ccc(C(F)(F)F)cc3N3CCCC3)cc12 (centres unmarked) [compound 89, 2-{5-[({phenyl[2-(pyrrolidin-1-yl)-4-(trifluoromethyl)phenyl]methyl}carbamoyl)methyl]-1H-indol-3-yl}acetic acid] | < 1000 nM
16 | COC(=O)Cc1c[nH]c2ccc(CC(=O)NC(c3ccccc3)c3ccccc3N3CCCCCC3)cc12 (centres unmarked) [Cpd. 74, methyl 2-{5-[({[2-(azepan-1-yl)phenyl](phenyl)methyl}carbamoyl)methyl]-1H-indol-3-yl}acetate] | < 1000 nM
17 | CCOc1ccc(C(NC(=O)Cc2ccc3[nH]cc(CCC(=O)O)c3c2)c2ccccc2)c(OCC)c1 (centres unmarked) [compound 247, 3-[5-({[(2,4-diethoxyphenyl)(phenyl)methyl]carbamoyl}methyl)-1H-indol-3-yl]propanoic acid] | < 1000 nM
18 | N#Cc1ccc(C(NC(=O)Cc2ccc3[nH]cc(CCC(=O)O)c3c2)c2ccccc2)c(N2CCCC2)c1 (centres unmarked) [Cpd. 60, 3-{5-[({[4-cyano-2-(pyrrolidin-1-yl)phenyl](phenyl)methyl}carbamoyl)methyl]-1H-indol-3-yl}propanoic acid] | < 1000 nM
19 | CC(C)(C)OC(=O)CCc1c[nH]c2ccc(CC(=O)NC(c3ccccc3)c3ccccc3N3CCCC(F)(F)C3)cc12 (centres unmarked) [Cpd. 232, tert-butyl 3-{5-[({[2-(3,3-difluoropiperidin-1-yl)phenyl](phenyl)methyl}carbamoyl)methyl]-1H-indol-3-yl}propanoate] | < 1000 nM
20 | Cc1ccc(C(NC(=O)Cc2ccc3[nH]cc(CC(=O)O)c3c2)c2ccccc2)c(N2CCOCC2)c1 (centres unmarked) [Cpd. 97, 2-{5-[({[4-methyl-2-(morpholin-4-yl)phenyl](phenyl)methyl}carbamoyl)methyl]-1H-indol-3-yl}acetic acid] | 1000 to 10000 nM
21 | Cc1ccc(Cl)c(C(NC(=O)Cc2ccc3[nH]cc(CCC(=O)O)c3c2)c2ccccc2)c1 (centres unmarked) [compound 42, 3-[5-({[(2-chloro-5-methylphenyl)(phenyl)methyl]carbamoyl}methyl)-1H-indol-3-yl]propanoic acid] | < 1000 nM
22 | CC(C)NC(=O)CCc1c[nH]c2ccc(CC(=O)NC(c3ccccc3)c3ccccc3N3CCCCC3)cc12 (centres unmarked) [compound 118, 3-{5-[({phenyl[2-(piperidin-1-yl)phenyl]methyl}carbamoyl)methyl]-1H-indol-3-yl}-N-(propan-2-yl)propanamide] | < 1000 nM
23 | O=C(O)Cc1c[nH]c2ccc(NC(=O)NC(c3ccccc3)c3ccccc3N3CCCCC3)cc12 (centres unmarked) [compound 69, 2-{5-[({phenyl[2-(piperidin-1-yl)phenyl]methyl}carbamoyl)amino]-1H-indol-3-yl}acetic acid] | 1000 to 10000 nM
24 | O=C(O)CCc1c[nH]c2ncc(NC(=O)NC(c3ccccc3)c3ccccc3N3CCCCC3)cc12 (centres unmarked) [compound 95, 3-{5-[({phenyl[2-(piperidin-1-yl)phenyl]methyl}carbamoyl)amino]-1H-pyrrolo[2,3-b]pyridin-3-yl}propanoic acid] | 1000 to 10000 nM
25 | Cc1ccc(C(NC(=O)Cc2ccc3[nH]cc(CCC(=O)OC(C)(C)C)c3c2)c2ccccc2OC(C)C)o1 (centres unmarked) [Cpd. 254, tert-butyl 3-[5-({[(5-methylfuran-2-yl)[2-(propan-2-yloxy)phenyl]methyl]carbamoyl}methyl)-1H-indol-3-yl]propanoate] | < 1000 nM
26 | O=C(O)CCc1c[nH]c2ccc(CC(=O)NC(c3ccccc3)c3ccccc3N3CCC(F)(F)CC3)cc12 (centres unmarked) [compound 180, 3-{5-[({[2-(4,4-difluoropiperidin-1-yl)phenyl](phenyl)methyl}carbamoyl)methyl]-1H-indol-3-yl}propanoic acid] | 1000 to 10000 nM
27 | O=C(O)CCc1c[nH]c2ccc(CC(=O)NC(c3ccccc3)c3ccccc3N3CCCC3)cc12 (centres unmarked) [compound 79, 3-{5-[({phenyl[2-(pyrrolidin-1-yl)phenyl]methyl}carbamoyl)methyl]-1H-indol-3-yl}propanoic acid] | < 1000 nM
28 | CCOc1ccc(C(NC(=O)Cc2ccc3[nH]cc(CCC(=O)OC(C)(C)C)c3c2)c2ccccc2)c(N2CCCCC2)c1 (centres unmarked) [Cpd. 149, tert-butyl 3-{5-[({[4-ethoxy-2-(piperidin-1-yl)phenyl](phenyl)methyl}carbamoyl)methyl]-1H-indol-3-yl}propanoate] | 1000 to 10000 nM
29 | Cc1ccc(C)c(C(NC(=O)Cc2ccc3[nH]cc(CCC(=O)O)c3c2)c2ccccc2)c1 (centres unmarked) [Cpd. 13, 3-[5-({[(2,5-dimethylphenyl)(phenyl)methyl]carbamoyl}methyl)-1H-indol-3-yl]propanoic acid] | < 1000 nM
